# Legend:
# PPARα = target: T1, PPARα (Homo sapiens, UniProt Q07869); details: cited from earlier work
# T1 sequence (Q07869 1-468): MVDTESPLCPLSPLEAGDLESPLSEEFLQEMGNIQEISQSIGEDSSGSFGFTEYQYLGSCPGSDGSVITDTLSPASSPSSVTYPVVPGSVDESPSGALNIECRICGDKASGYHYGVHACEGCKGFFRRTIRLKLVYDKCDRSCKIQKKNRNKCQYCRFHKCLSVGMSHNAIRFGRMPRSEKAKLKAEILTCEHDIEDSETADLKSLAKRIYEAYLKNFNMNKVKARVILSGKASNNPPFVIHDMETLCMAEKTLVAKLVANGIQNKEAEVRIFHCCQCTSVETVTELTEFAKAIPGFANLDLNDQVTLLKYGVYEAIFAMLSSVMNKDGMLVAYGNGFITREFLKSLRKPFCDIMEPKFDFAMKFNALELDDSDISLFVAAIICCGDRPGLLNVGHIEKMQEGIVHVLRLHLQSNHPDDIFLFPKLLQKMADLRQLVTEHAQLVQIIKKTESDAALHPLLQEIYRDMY
# [1] = obese adults; cited from earlier work
# [2] = healthy individuals; cited from earlier work
# [3] = 3 week-old rats; cited from earlier work
# [4] = tested on: stem cell-derived cardiomyocytes; test: Seahorse MitoStress analysis of stem cell-derived cardiomyocytes; type: cell-based, human
# Protocol: (§1) Cells were seeded on Matrigel in mTeSR-1 medium and allowed to reach 80-90% confluence. Cardiac differentiation was conducted as previously described (Burridge, P. W. et al. Chemically defined generation of human cardiomyocytes. Nat Methods 11, 855-860, 2014). Briefly, a basal medium named CDM3 was used (RPMI-1640, 500 µg/mL recombinant human serum albumin, 213 µg/mL L-ascorbic acid 2-phosphate and 1% penicillin/streptomycin). At day zero of differentiation, the medium was replaced with CDM3 supplemented with 6 µmol/L CHIR99021 (Stemgent) for two days. At day two of the differentiation the culture-medium was switched to CDM3 medium supplemented with 2 µM Wnt-C59 (Selleckchem), for additional two days. From day four onward, cells were cultured with RPMI supplemented with B27-I (B27 supplement without Insulin; Gibco, USA). […]
# Mitochondrial function was measured using the Seahorse XF Cell Mito Stress Test Kit according to the manufacturer’s instructions (Agilent, Santa Clara, CA). […] The basal oxygen consumption rate (OCR) was measured for 30 minutes and then injected 1 µM oligomycin, a mitochondrial complex V inhibitor that blocks oxidative phosphorylation. […]
# [5] = tested on: pluripotent stem cells derived cardiomyocytes; test: Immunofluorescence / cell shape analysis of stem cell-derived cardiomyocytes; type: cell-based, human; details: OA+9CLA+GW9662
# Protocol: Cultured cells were fixed using 4% paraformaldehyde for 15 minutes at room temperature. Cells were then permeabilized in blocking solution (2% bovine serum albumin (BSA) and 0.25% Triton X-100 in PBS) for one hour at room temperature and incubated with primary antibodies (Table 13 below) for an additional hour. Following washes, cells were incubated with secondary antibodies (Table 14 below) for 1 hour at room temperature in blocking solution, washed twice in PBS and counterstained with 1 µg/ml Hoechest 33258 (Sigma Aldrich, USA) for 5 minutes. Imaging was performed on a Zeiss LSM 700 confocal microscope. Staining of actin was carried out simultaneously with secondary antibody incubation step by adding a 1:100 of Rhodamine-Phalloidin solution. Microscopic single cell and mitochondrial shape analysis was carried out using the CellProfiler software. Mitochondrial elongation was scored from 0 to 1, where 0 corresponds to a circle and 1 to a rectangle.
# Cells were seeded on Matrigel in mTeSR-1 medium and allowed to reach 80-90% confluence. Cardiac differentiation was conducted as previously described (Burridge, P. W. et al. Chemically defined generation of human cardiomyocytes. Nat Methods 11, 855-860, 2014). Briefly, a basal medium named CDM3 was used (RPMI-1640, 500 µg/mL recombinant human serum albumin, 213 µg/mL L-ascorbic acid 2-phosphate and 1% penicillin/streptomycin). […]
# UN1 iPSC = test: Fatty acid supplementation at different steps of 4-step cardiac differentiation; type: cell-based, human; details: preliminary studies
# Protocol: FIGS. 3A-B. Addition of OA+9CLA during differentiation impairs differentiation. (A) Light Microscopy of UN1 iPSC during 4-step cardiac differentiation (methods) supplemented with 100 µM oleic acid and 50 µM 9CLA at different steps. […] (B) Quantification of portion of complete well death (left) and portion of beating wells resulted by supplementation with 100 µM oleic acid and 50 µM 9CLA at different steps of the 4-step cardiac differentiation (n=24; methods).
# as §1
# [6] = tested on: human embryonic stem cells; details: hESC on mouse fibroblast feeder layers; cited from earlier work
# adipocytes = details: short term exposure; cited from earlier work
# human muscle cells = details: cited from earlier work
# [7] = human subjects; cited from earlier work
compound,measurement,setting,value
"CCCCCC/C=C/C=C\CCCCCCCC(=O)O [9CLA, 9Z,11E-octadeca-9,11-dienoic acid]",activity at PPARα,PPARα,agonist
same,insulin sensitivity and lipid peroxidation,[1],increasing
same,low density lipoproteins (LDL),[2],decreasing
same,effect of treatment,[3],did not have a beneficial effect
O=C(Nc1ccccc1)c1cc([N+](=O)[O-])ccc1Cl [GW9662],"effect of GW9662 on the effect of postnatal lipids, in all cases","[4]; all readouts (respiration, glycolysis, cell area, gene expression), 10 µM GW9662",reversed
same,effect of GW9662 on fatty acid-induced respiration increase and glycolysis decrease,[4]; short-term exposure to GW9662 with OA+9CLA,reversed both effects
same,effect of PPARα/γ inhibition on OA+9CLA-induced cell area increase,[5],reversed
conjugated linoleic acid [CLA],outcome of addition during cardiomyocyte differentiation,UN1 iPSC,immature fibroblast-like cells that did not start beating
same,outcome of addition on terminally differentiated beating cardiomyocytes,UN1 iPSC,mature cardiomyocytes
same,decrease of differentiation of stem cell colonies,[6],20%
same,differentiation of mature adipocytes,adipocytes,delayed the differentiation of mature adipocytes
same,myogenic gene expression,human muscle cells,suppressed myogenic gene expression
same,effect on endothelial function,[7],negative effect

# Reference: US20230295575A1, “METHODS OF INCREASING MATURATION OF HEART, PANCREATIC BETA-CELLS, AND NEURONS” (Yissum Research Development Company of the Hebrew …, priority 2020, published 2023)
